Reference: patent US8575114B2, “SGLT-2 inhibitors, methods of making them, and uses thereof” (Albany Molecular Research, Inc., priority 2010, dated 2013)

Experiments:
hSGLT-1 = hSGLT-1 (Homo sapiens (Human), UniProt P13866); assay: [14C]AMG uptake inhibition in CHO-K1/hSGLT-1 cells; assay type: cell-based; settings: 4 μM [14C]AMG, 3-hr incubation at 37° C., read-out: SGLT-1, IC50
Excerpt: (§1) The inhibitory activity of the compounds of this invention against the SGLT-1 or SGLT-2 transporters can be determined by the following assay. The cDNAs for the human genes of SGLT-1 (SLC5A1—solute carrier family 5 sodium/glucose cotransporter member 1; Accession #NM_000343.1) or SGLT-2 (SLC5A2—member 2; Accession #NM_003041.2) were synthesized (OriGene Technologies, Inc.) and sub-cloned into the mammalian expression vector, pcDNA3.1 (Invitrogen Corp., Carlsbad, Calif.) using standard molecular biology techniques. CHO-K1 cells transfected with pcDNA3.1 (Invitrogen Corp., Carlsbad, Calif.) containing either the full-length hSGLT-1 or hSGLT-2 using Lipofectamine 2000 (Invitrogen Corp., Carlsbad, Calif.) were selected for stable incorporation of the construct by resistance to the selective pressure of Geneticin (450 μg/ml; Invitrogen Corp., Carlsbad, Calif.). Monoclonal cell lines isolated by minimal dilution were screened for uptake activity of radiolabled methyl α-D-glucopyranoside ([^14C]AMG), a non-metabolizable glucose analogue, and a single clone for each transporter was selected for maximal transporter activity to be used for evaluating the inhibitory activity of the compounds of this invention. In brief, 35,000 cells (CHO-K1/hSGLT-1 or CHO-K1/hSGLT-2) were plated per well of a black tissue culture treated 96-well plate in Ham's F12 media supplemented with 10% heat inactivated FBS and allowed to attached overnight at 37° C. and 5% CO2. Compounds were serially diluted 3-fold in DMSO generating a nine (9) data point dose response curve for each compound. Two replicates were performed per determination. The compounds were then diluted into Uptake Buffer (10 mM Hepes, 5 mM Tris, 137 mM NaCl, 5.4 mM KCl, 2.8 mM CaCl2, and 1.2 mM MgSO4, pH 7.4) with a final DMSO concentration of 0.9% (v/v). After the overnight incubation and prior to compound treatment, the cells were washed twice with Sodium Free Buffer in which the sodium chloride was replaced with 137 mM Choline Chloride, and then incubated with 4 μM [^14C]AMG in Uptake Buffer in the presence or absence of diluted compound. Following a 3-hr incubation at 37° C. and 5% CO2, the uptake reaction was stopped by washing the cells three (3) times with ice-cold D-PBS and then lysing the cells with 50 μl of Microscint-20. After 15-min, the amount of radioactivity that was incorporated into the cells was quantified using a Microbeta reader. Data were fit to an empirical four-parameter model to determine the inhibitor concentration at half-maximal response (IC50). The assay window was established by control wells incubated with [^14C]AMG in the presence or absence of sodium. A dose response curve for phlorizin was generated on every plate as a positive control.

hSGLT-2 = hSGLT-2 (Homo sapiens (Human), UniProt P31639); assay: [14C]AMG uptake inhibition in CHO-K1/hSGLT-2 cells; assay type: cell-based; settings: 4 μM [14C]AMG, 3-hr incubation at 37° C., read-out: SGLT2, IC50
Sequence of hSGLT-2 (P31639 whole entry): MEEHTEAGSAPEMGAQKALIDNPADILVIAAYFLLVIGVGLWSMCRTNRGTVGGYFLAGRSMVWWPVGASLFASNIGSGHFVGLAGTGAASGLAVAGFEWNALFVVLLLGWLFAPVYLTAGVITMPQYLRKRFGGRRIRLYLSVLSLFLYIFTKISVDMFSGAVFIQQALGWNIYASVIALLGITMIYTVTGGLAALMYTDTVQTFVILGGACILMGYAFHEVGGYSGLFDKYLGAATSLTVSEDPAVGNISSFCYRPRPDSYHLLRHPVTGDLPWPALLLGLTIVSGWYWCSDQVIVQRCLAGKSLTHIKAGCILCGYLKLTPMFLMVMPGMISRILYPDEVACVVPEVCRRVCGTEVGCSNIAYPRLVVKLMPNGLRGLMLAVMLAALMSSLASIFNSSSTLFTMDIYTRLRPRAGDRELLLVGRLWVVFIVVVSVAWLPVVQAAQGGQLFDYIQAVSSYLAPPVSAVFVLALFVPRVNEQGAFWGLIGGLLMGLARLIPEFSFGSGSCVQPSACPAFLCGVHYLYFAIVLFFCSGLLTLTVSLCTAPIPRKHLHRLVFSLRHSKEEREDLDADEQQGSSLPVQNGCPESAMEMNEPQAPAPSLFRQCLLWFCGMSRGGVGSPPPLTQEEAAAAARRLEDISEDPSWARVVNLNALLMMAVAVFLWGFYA
Procedure: as §1, with “The cDNAs for the human genes of SGLT-1 (SLC5A1—solute carrier family 5 sodium/glucose cotransporter member 1; Accession #NM_000343.1) or SGLT-2 (SLC5A2—member 2; Accession #NM_003041.2) were synthesized (OriGene Technologies, Inc.) and sub-cloned into the mammalian expression vector, pcDNA3.1 (Invitrogen Corp., Carlsbad, Calif.) using standard molecular biology techniques.” left out, “The compounds were then diluted into Uptake Buffer (10 mM Hepes, 5 mM Tris, 137 mM NaCl, 5.4 mM KCl, 2.8 mM CaCl2, and 1.2 mM MgSO4, pH 7.4) with a final DMSO concentration of 0.9% (v/v). After the overnight incubation and prior to compound treatment, the cells were washed twice with Sodium Free Buffer in which the sodium chloride was replaced with 137 mM Choline Chloride, and then incubated with 4 μM [^14C]AMG in Uptake Buffer in the presence or absence of diluted compound.” left out, “After 15-min, the amount of radioactivity that was incorporated into the cells was quantified using a Microbeta reader.” left out

Sequence of hSGLT-1 (P13866 whole entry): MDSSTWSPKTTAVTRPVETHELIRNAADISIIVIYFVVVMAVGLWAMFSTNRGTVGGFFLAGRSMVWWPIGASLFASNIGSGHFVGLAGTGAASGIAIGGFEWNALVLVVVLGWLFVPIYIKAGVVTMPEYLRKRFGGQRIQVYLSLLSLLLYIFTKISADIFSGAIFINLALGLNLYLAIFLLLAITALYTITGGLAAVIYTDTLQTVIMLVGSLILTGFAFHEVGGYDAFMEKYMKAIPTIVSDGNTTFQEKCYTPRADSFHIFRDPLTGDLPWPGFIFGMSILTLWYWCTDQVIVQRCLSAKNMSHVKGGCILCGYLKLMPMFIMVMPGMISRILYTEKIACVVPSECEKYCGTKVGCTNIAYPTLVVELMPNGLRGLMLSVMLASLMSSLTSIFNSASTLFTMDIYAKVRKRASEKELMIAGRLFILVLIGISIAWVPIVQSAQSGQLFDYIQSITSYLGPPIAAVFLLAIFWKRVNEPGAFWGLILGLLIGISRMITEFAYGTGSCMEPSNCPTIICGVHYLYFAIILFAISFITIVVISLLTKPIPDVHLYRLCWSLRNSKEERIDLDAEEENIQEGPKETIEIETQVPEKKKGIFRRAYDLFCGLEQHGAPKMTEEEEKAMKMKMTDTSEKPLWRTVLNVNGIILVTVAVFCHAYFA

Structure (SMILES)	IC50 (hSGLT-1) [nM]	IC50 (hSGLT-2) [nM]
CC(C)N1C(=O)CN(c2ccc(Cc3cc([C@@H]4O[C@H](CO)[C@@H](O)[C@H](O)[C@H]4O)ccc3Cl)cc2)C1=O [III-4, 1-(4-(2-chloro-5-((2S,3R,4R,5S,6R)-3,4,5-trihydroxy-6-(hydroxymethyl)tetrahydro-2H-pyran-2-yl)benzyl)phenyl)-3-isopropylimidazolidine-2,4-dione]	35400	23.6
CN1C(=O)N(c2ccc(Cc3cc([C@@H]4O[C@H](CO)[C@@H](O)[C@H](O)[C@H]4O)ccc3Cl)cc2)C(C)(C)C1=O [III-5, 1-(4-(2-chloro-5-((2S,3R,4R,5S,6R)-3,4,5-trihydroxy-6-(hydroxymethyl)tetrahydro-2H-pyran-2-yl)benzyl)phenyl)-3,5,5-trimethylimidazolidine-2,4-dione]	> 90000	489
